For test [1], the system named is HCT116 cells. In words: FACS analysis of phospho-Ser10 Histone-H3. It is filed as cell-based, human. The settings on record: 2.7% in vehicle controls. The method, then:
Adherent cells were trypsinyzed, washed twice with PBS and filtered through a […] cell sieve. DNA content was assessed by flow cytometry. Cells were seeded at densities of 1.5×10^5 cells (MDA-MB-231, MDA-MB-436), or 4×10^5 cells (MCF-7 and MCF10A), or 2×10^5 cells (SW480, HT-29), or 5×10^5 cells (HCT116), per well in DMEM with 10% FBS in 6-well plate culture dishes. […] After 48 hours, cells were washed twice with PBS (pH 7.4), centrifuged at 360 g for 10 minutes at 4° C., and fixed in chilled ethanol (70%; v/v in PBS) with gentle vortex mixing. To determine their DNA contents, the cells were stained with 40 μg/ml propidium iodide (hereinafter PI) and analyzed using a FACSCalibur flow cytometer and CellQuest analysis software (Becton Dickinson, San Jose, Calif.). Where phosphoHistone-H3 staining was carried out, cells were incubated with polyclonal antibody against phosphoHistone H3 and then with secondary Goat anti-rabbit IgG-conjugated to FITC prior to PI staining.
Chromosome condensation at mitosis is accompanied by phosphorylation of histone H3. Accordingly, in order to determine if cells were arresting at G2 or M phase, HCT116 cells were analyzed for pS10 Histone H3 following strigolactone analogs exposure. […] To further quantify whether the growth inhibition observed in-vitro following strigolactone treatment was due in part to apoptosis, HCT116 cells were dual stained with Annexin V and PI (Prodidium Iodide). Annexin V staining indicate the inversion of the inner leaflet of the plasma membrane an early event of apoptosis. Late apoptosis is characterized by loss of membrane integrity and cells become permeable to PI. […] Cells were incubated for 48 hours and then co-stained with annexin-V and PI (FIG. 12F). Following treatment with 10 ppm and 15 ppm MEB-55, the percentage of late apoptotic cell increased from 3.6% to 62% and 85% respectively (FIG. 12F, lower panel). […] Dual Annexin V/PI staining analysis was also carried out on two other colon cancer cell lines, (SW480, HT29) following strigolactone treatment. Increased apoptosis was also observed in these lines following MEB-55 treatment in a dose dependent manner (FIG. 12D).
For orientation: In flow cytometry, cells or beads pass a laser one at a time.

The test system of test [2] is pT308 AKT. The test is described as follows: Immunoblot of survival signaling. The note with it: MDA-MB-231 cells, 10 ppm. It is filed as cell-based, human. On the procedure: Protein concentration was determined using the BCA Protein Assay (Pierce), and 20-50 μg of lysate were separated in a 4-12% SDS-PAGE gel. After transfer, membranes were blocked for 15-30 min at room temperature in 5% BSA (Sigma) in Tris-buffered saline containing 0.1% Tween-20. Primary antibody was incubated for either 1.5 hours at room temperature or overnight at 4° C. Secondary antibody was incubated for 30-45 min at room temperature, and proteins were visualized with West Pico Stable (Pierce). All antibodies were used at 1:1000 dilution unless otherwise stated. pT308AKT, AKT, pT180/Y182, pT183/Y185 P38MAPK, pP38MAPK, pT202/Y204 pERK1/2, ERK1, pT183/Y185, pJNK1/2, JNK1, pT71ATF2, pT581MSK1, pT14 Cdc2, Cdc2, pT68Chk2 (cell signaling), pT334MAPKAPK, pS82HSP27 (Cell Signaling Technology, Danvers, Mass.), α-tubulin (Biomarkers, 1:50,000), Cyclin B1 (Santa Cruz Biotechnologies) and horseradish peroxidase-conjugated anti-rabbit IgG and anti-mouse IgG (1:5,000, Pierce).
The PI3K/AKT pathway regulates a wide range of cellular functions including survival and proliferation. […] PDK1 phosphorylates AKT on T308, which is itself activated by phosphorylation on S241. Levels of pS241 PDK1 were reduced upon strigolactone treatment and correlated closely with reduced AKT phosphorylation observed in strigolactone treated cells (FIG. 14).
Background: A western blot detects proteins with antibodies after separation by electrophoresis.

With `CC1=CC(O/C=C2/C(=O)c3c(c4cc(-c5cccs5)ccc4n3C)C2C)OC1=O` (stereo not drawn) [ST-357, (2E)-1,4-dimethyl-2-((4-methyl-5-oxo-2,5-dihydrofuran-2-yloxy)methylene)-7-(thiophen-2-yl)-1,2-dihydrocyclopenta[b]indol-3(4H)-one], the “Percentage of cells staining positive for pHistone H3” value in test [1] (5 ppm) is reported as 0.7%; in test [1] (7.5 ppm), 0.3%.

For `CC1=CC(O/C=C2\Cc3c(n(C)c4ccccc34)C2=O)OC1=O` (racemic) [EG-5, (±) (2E)-4-methyl-2-(4-methyl-5-oxo-2,5-dihydrofuran-2-yloxymethylene)-1,4-dihydro-2H-cyclopenta[b]indol-3-one], in test [2], the “pT308 AKT levels / inhibition of AKT phosphorylation” value was “slight delay in the inhibition of AKT phosphorylation, occurring between 8 and 24 hours”.

As to `CC1=CC(O/C=C2\Cc3c(n(C)c4cc(-c5cccs5)ccc34)C2=O)OC1=O` (racemic) [MEB-55, (±) 2E-4-methyl-2-(4-methyl-5-oxo-2,5-dihydrofuran-2-yloxymethylene)-6-thiophen-2-yl-1,4-dihydro-2H-cyclopenta[b]indol-3-one], the “Percentage of cells staining positive for pHistone H3” value in test [1] (5 ppm) is listed as 1.45%; in test [1] (7.5 ppm), 0.9%. Further, the “pT308 AKT levels / inhibition of AKT phosphorylation” value in test [2] is “decreased dramatically between 4 and 8 hours”.

Source of the values: patent US10208007B2, “Use of strigolactones and strigolactone analogs for treating proliferative conditions” (The State of Israel, Ministry of Agriculture & Rural …, priority 2011, dated 2019).
